One assay deals with various tumor cell lines. As to conditions: cited from earlier work.
For assay [1], the system named is SUM190PT (Nectin-4-positive, solid tumor) xenograft. In words: Tumor growth inhibition in SUM190PT xenograft model. It is filed as in vivo, CB17 SCID mice. As to conditions: single i.v. injection. Here is the method:
For SUM190PT xenografts, 2×10^6 cells were injected into the mammary fat pad of CB17 SCID mice (Janvier). Tumor dimensions and body weights were recorded three times weekly. The tumor volume was calculated according to the formula volume=(width)^2×length×0.5. When the average tumor size reached about 200 mm^3, mice were allocated using a non-random stratification protocol into the treatment groups comprising six mice each. ADCs were intravenously injected once on the day of randomization. The ADCs according to this invention were produced in-house as described in Example 2. Enfortumab vedotin (DAR 4) was commercially available, bought from a pharmacy. ARA-04-MMAE-PABC-AA-C2-RKAA-PABC-MMAE (DAR 4.0) and ARA-04-RKAA-PABC-(MMAE)2 (DAR 3.8) were injected at ADC doses corresponding to 10 μg payload dose per kg mouse weight (10 μg/kg). Enfortumab vedotin (DAR 4) was injected 15 μg payload dose per kg mouse weight (15 μg/kg). Mice in the control group were injected with PBS. All mouse experiments were performed in accordance with Swiss guidelines and were approved by the Veterinarian Office of Zurich, Switzerland.

The target in another assay is RNA-polymerase II (Homo sapiens, UniProt P24928). Conditions: read-out: KD of the complex between amanitin and RNA-polymerase II; cited from earlier work.
Where [2] appears, read: 10 μg/kg payload dose, six mice per group.

pKd: −log10 of the molar value. “Also recorded” adds a separate entry of the source.

On to `CC[C@H](C)[C@H](NC(=O)[C@H]1CCCCN1C)C(=O)N(COC(=O)CC(C)C)[C@H](C[C@@H](OC(C)=O)c1nc(C(=O)N[C@@H](Cc2ccc(O)cc2)C[C@H](C)C(=O)O)cs1)C(C)C` [Tubulysin A], for which the “IC50, cytostatic effects” value in the assay with various tumor cell lines is reported as “picomolar range”.
Take “ARA-04-MMAE-PABC-AA-C2-RKAA-PABC-MMAE: anti-Nectin-4 ADC (DAR 4.0), same antibody and payload as Enfortumab vedotin, payloads at N- and C-terminal end of peptide linker”: in assay [1] (setting [2]), the “anti-tumor response (in words)” value was “active in vivo; also recorded: superior efficacy providing survival advantage” and the “mice with complete long-lasting responses” value is given as 4/6.
Consider “ARA-04-RKAA-PABC-(MMAE)2: anti-Nectin-4 ADC (DAR 3.8), same antibody and payload as Enfortumab vedotin, payloads only at C-terminal end of peptide linker”, for which the “anti-tumor response (in words)” value in assay [1] (setting [2]) is “tumor control for approximately 20 days in 6/6 mice followed by re-growth of tumors; also recorded: active in vivo”.
As for Enfortumab vedotin [reference compound], the “animals with marked regrowth after day 40” value in assay [1] (15 μg/kg payload dose) is reported as 6/6. The “anti-tumor response (in words)” value in assay [1] (15 μg/kg payload dose, six mice per group) is listed as “transient tumor regression with no tumor-free individuals at 20 days after treatment”.
As a reminder, the pKd is the Kd on a negative log10 scale, so that one unit is a factor of ten. Turning to amanitin, the pKd on RNA-polymerase II was 8.52.
